Measurements from US20210379049A1, “PPAR-gamma AGONIST FOR TREATMENT OF BLOOD CANCERS” (Coherus Biosciences, Inc, priority 2016, published 2021).

Columns and labels:
adiponectin [1] = assay: 14-day study: serum adiponectin levels in healthy subjects; assay type: in vivo, human; details: 0.1 mg INT131 daily for 14 days
Protocol: A study was conducted to determine the effect of INT131 on serum adiponectin levels. Thirty healthy subjects were randomly selected to receive either placebo, 0.1 mg INT131, 1 mg INT131 or 4 mg INT131 daily for 14 days. To measure adiponectin levels blood was drawn at Days 1, 4, 8 and 14.

[2] = subjects taking INT131 vs those taking pioglitazone; DePaoli et al. 2014; cited from earlier work
adiponectin [3] = assay: 24-week randomized, double-blind, placebo-controlled study: serum adiponectin levels in subjects with type 2 diabetes; assay type: in vivo, human; details: for Mean Adiponectin Week 24 / Mean Adiponectin Week 0: type 2 diabetes subjects; for Mean Adiponectin Week 0: baseline (Week 0)
Protocol: A randomized, double-blind, placebo-controlled, 24-week study was conducted in which adiponectin levels were measured. […] 367 subjects with type 2 diabetes (TD2)—a disease in which patient adiponectin levels are reduced-were randomly assigned to receive either 0.5, 1, 2 or 3 milligrams (“mg”) of INT131 besylate, 45 mg of pioglitazone or placebo daily for 24 weeks. To measure adiponectin levels blood was drawn at Weeks 0, 2, 6, 12 and 24.
At baseline (Week 0) mean adiponectin levels were 1.94 micrograms per milliliter (“μg/mL”). The mean adiponectin levels at baseline and Week 24, and the mean change in adiponectin levels from baseline (Week 0) to Week 24 are disclosed in Table 1, below. The standard deviation for samples tested in each group is listed in (parenthesis). Mean baseline adiponectin values were similar for the treatment groups.

## O=S(=O)(Nc1cc(Cl)c(Oc2cnc3ccccc3c2)c(Cl)c1)c1ccc(Cl)cc1Cl [INT131]
Adiponectin [1]
  change in serum adiponectin levels from Day 1 to Day 14 and over placebo: no significant change
[2]
  edema, weight gain and hemodilution versus pioglitazone: less edema, weight gain, and hemodilution
Adiponectin [3]; 0.5 mg, 1 mg and 3 mg doses of INT131 vs pioglitazone 45 mg, p≤0.0408
  treatment comparison of adiponectin levels with pioglitazone 45 mg: statistically significant
Adiponectin [3]; 1 mg, 2 mg and 3 mg doses of INT131 vs placebo, p≤0.0109
  treatment comparison of adiponectin levels with placebo: statistically significant
Adiponectin [3]; Week 24, 0.5 mg INT131 daily
  Mean Adiponectin Week 24: 2.28 µg/mL
Adiponectin [3]; Week 24, 1 mg INT131 daily
  Mean Adiponectin Week 24: 3.15 µg/mL
Adiponectin [3]; Week 24, 2 mg INT131 daily
  Mean Adiponectin Week 24: 5.14 µg/mL
Adiponectin [3]; Week 24, 3 mg INT131 daily
  Mean Adiponectin Week 24: 5.83 µg/mL
Adiponectin [3]; 0.5 mg INT131 daily group
  Mean Adiponectin Week 0: 1.73 µg/mL
Adiponectin [3]; 1 mg INT131 daily group
  Mean Adiponectin Week 0: 1.87 µg/mL
Adiponectin [3]; 2 mg INT131 daily group
  Mean Adiponectin Week 0: 1.87 µg/mL
Adiponectin [3]; 3 mg INT131 daily group
  Mean Adiponectin Week 0: 2.00 µg/mL

## CCc1ccc(CCOc2ccc(CC3SC(=O)NC3=O)cc2)nc1 (centres unmarked) [Pioglitazone, pioglitazone, reference compound]
Adiponectin [3]; Week 24, 45 mg pioglitazone daily
  Mean Adiponectin Week 24: 5.28 µg/mL
Adiponectin [3]; 45 mg pioglitazone daily group
  Mean Adiponectin Week 0: 2.32 µg/mL
